Data taken from patent publication US10064858B2, “Methods and compositions for treating bacterial infections with iron chelators” (THE UNITED STATES OF AMERICA, AS REPRESENTED BY THE …, priority 2011, dated 2018).

Legend:
Acinetobacter baumannii = assay: Growth (OD600) with VK28 in M9 media with magnesium / calcium; assay type: cell-based; settings: 24 hours
Protocol: Acinetobacter baumannii was grown similar to as described in Example 21 in M9 media containing 2 mM MgSO4 for 24 hours in the presence of 0 μg/ml, 50 μg/ml, 100 μg/ml, or 200 μg/ml VK28. The OD600 was measured at 0, 4, and 24 hour and the results are shown in the time-kill curves of FIG. 19.
(§1) In this example, strains of MR Staphylococcus aureus (MRSA), Acinetobacter baumannii (Acinetobacter), Escherichia coli (E. coli), and Pseudomonas aeruginosa (Pseudomonas) were grown in M9 media in the presence of 2 mM MgSO4 and 1.35 mM CaCl2 for 24 hours in the presence or absence of 0 μg/ml, 50 μg/ml, 100 μg/ml, or 200 μg/ml of VK28. The OD600 was measured at 24 hour and the results are shown in the bar graph of FIG. 21.

Escherichia coli = assay: as above; assay type: cell-based; settings: 24 hours
Protocol: Escherichia coli was grown similar to as described in Example 19 in M9 media containing 2 mM MgSO4 for 24 hours in the presence of 0 μg/ml, 50 μg/ml, 100 μg/ml, or 200 μg/ml VK28. The OD600 was measured at 0, 4, and 24 hour and the results are shown in the time-kill curves of FIG. 18.
as §1

AB5075 = assay: Time-kill assay in M9 minimal media; assay type: cell-based, A. baumannii; settings: 24 hours
Protocol: Reductions in colony forming units (CFU)/mL were determined over time (time-kill assay) after exposure to VK28 and deferiprone (DFP), the two iron chelators that performed best in MIC assays when compared to controls. To better represent the iron content found in the human body, MIC and time-kill assays were also determined in minimal media and tissue culture media. Time-Kill assays were performed as previously described in G. P. Neupane et al., “In vitro time-kill activities of ciprofloxacin alone and in combination with the iron chelator deferasirox against Vibrio vulnificus,” European Journal of Clinical Microbiology and Infectious Diseases, 407-410 (2010); and R. L. White, et al., “Comparison of Three Different In Vitro Methods of Detecting synergy: Time-Kill, Checkerboard, and E test,” Journal of Antimicrobial Agents and Chemotherapy, 1914-1918 (1996). Initial inocula, for example 1×10^6 CFU/mL or 1×10^7 CFU/mL were challenged with iron chelator with and/or without an antibiotic. Cells were allowed to grow in CAMHB at 37° C. for 24 hours. Time-kill results were analyzed by determining the change in log 10 numbers of CFU/ml at 0, 6, and 24 h, compared to counts at 0 h. Antimicrobials were considered bactericidal at the lowest concentration that reduced the size of the original inoculum by >3 log 10 CFU/ml (99.9%) over each of the time periods and were considered bacteriostatic if the inoculum's size was reduced by 0 to <3 log 10 CFU/ml.
The untreated sample (♦) had greater than 1×10^9 CFU/mL after 9 hours that was sustained at 24 hours.

MRSA ATCC SA43300 = assay: Time-kill assay in CAMHB; assay type: cell-based, S. aureus; settings: 1×MIC and 2×MIC VK28
Protocol: Reductions in colony forming units (CFU)/mL were determined over time (time-kill assay) after exposure to VK28 and deferiprone (DFP), the two iron chelators that performed best in MIC assays when compared to controls. To better represent the iron content found in the human body, MIC and time-kill assays were also determined in minimal media and tissue culture media. Time-Kill assays were performed as previously described in G. P. Neupane et al., “In vitro time-kill activities of ciprofloxacin alone and in combination with the iron chelator deferasirox against Vibrio vulnificus,” European Journal of Clinical Microbiology and Infectious Diseases, 407-410 (2010); and R. L. White, et al., “Comparison of Three Different In Vitro Methods of Detecting synergy: Time-Kill, Checkerboard, and E test,” Journal of Antimicrobial Agents and Chemotherapy, 1914-1918 (1996). Initial inocula, for example 1×10^6 CFU/mL or 1×10^7 CFU/mL were challenged with iron chelator with and/or without an antibiotic. Cells were allowed to grow in CAMHB at 37° C. for 24 hours. Time-kill results were analyzed by determining the change in log 10 numbers of CFU/ml at 0, 6, and 24 h, compared to counts at 0 h. […]

[1] = tested on: Acinetobacter baumannii strain 5711 (AB5711); assay: Growth (OD600) of AB5711 in low iron media with chelators, with or without FeCl3; assay type: cell-based; settings: for bacterial growth (OD600 growth curves): AB5711, low iron media, 100 μM or 200 μM chelator added after 4 hr, 24 hr
Protocol: Acinetobacter baumannii strain 5711 (AB5711) was grown overnight in LB media and sub-cultured into low iron media. The tested iron chelators were deferoxamine (DFO), deferiprone (DFP), 2,2-dipyridyl, and VK28. The iron chelators were added after 4 hr of growth.
Bacterial growth was estimated by absorption at OD600 every 4 hr for 24 hr. Optical density (OD) at 600 nm (OD600) as measured by a spectrophotometer is a widely used technique known by one skilled in the art to estimate the total number of bacterial cells present in a broth culture (CFU/ml). The exact amount of OD produced by a culture will depend on the concentration of cells present, the species and strain of microbe present, the growth conditions used, and the wavelength of the light being transmitted. Thus, the relationship between OD and cell concentrations will depend on the specific strain and growth conditions studied. For example, the OD600 of 1 for E. coli is about 1×10^9 CFU/ml.
This example provides further evidence that the removal of iron is responsible for bacterial growth inhibition. A. baumannii isolate 5711 was grown in low iron M9 media supplemented with 0 μM, 10 μM, or 100 μM FeCl3 with and without the addition of 200 μM VK28 following 4 hr of growth. Growth was estimated by absorbance at 600 nm every 4 hr for 24 hr.
This example provides further evidence that the removal of iron is responsible for bacterial growth inhibition. A. baumannii isolate 5711 was grown in low iron M9 media supplemented with 0 μM, 10 μM, 100 μM, or 1000 μM FeCl3 with and without the addition of 50 μg/ml of VK28 following 4 hr of growth. Growth was estimated by absorbance at 600 nm after 20 hours.

EC 35218, EC 43888 = assay: Checkerboard assay, chelator with antibiotic (FIC); assay type: cell-based, E. coli
Text: Drug interactions were initially evaluated with the “checkerboard” microdilution design, which provided a matrix of all drug combinations assayed in terms of fractions of the previously determined MIC. The checkerboard microdilution design is described in R. J. Tallarida, “Drug Synergism: Its Detection and Applications,” Journal of Pharmacology and Experimental Therapeutics, 865-872 (2001); and in R. L. White, et al., (1996), supra. FIGS. 39A and 39B show the wellplates having different concentrations of iron chelator and antibiotic, as labeled along the x-axis and y-axis.
The checkerboard assay was used to asses other combinations of iron chelators and antibiotics. The fractional inhibitory concentration index (FIC), which was calculated as follows: FIC=(MIC A in combination/MIC A)+(MIC B in combination/MIC B). Interaction was defined as synergistic if the FIC was <1.0, preferably <0.5, no interaction if the FIC was >1.0 and <4.0, and antagonistic if the FIC was >4.0. […]
The assay was run against the multi-drug resistant bacterial species AB 19606, AB 17978, EC 35218, and EC 43888.

[2] = M9 with 2 mM MgSO4, 50-200 μg/ml VK28
[3] = M9 with 2 mM MgSO4 and 1.35 mM CaCl2
[4] = EC 35218, in combination with Cefotaxine
[5] = EC 35218, in combination with Colisitin
[6] = EC 35218, in combination with Doxycycline
[7] = EC 35218, in combination with Rifampin
[8] = EC 43888, in combination with Cefotaxine
[9] = EC 43888, in combination with Colisitin
[10] = EC 43888, in combination with Doxycycline
[11] = EC 43888, in combination with Rifampin

SMILES | inhibition of growth (OD600) (Acinetobacter baumannii; [2]) | inhibition of growth (OD600) (Acinetobacter baumannii; [3]) | inhibition of growth (OD600) (Escherichia coli; [2]) | inhibition of growth (OD600) (Escherichia coli; [3]) | time-kill course of CFU/ml (AB5075; 0.5×MIC) | time-kill course of CFU/ml (AB5075; 1×MIC) | time-kill course of CFU/ml (AB5075; 2×MIC) | time-kill effect (MRSA ATCC SA43300) | growth with FeCl3 added (absorbance at 600 nm after 20 hours) ([1]; 50 μg/ml of VK28 with 10, 100 or 1000 μM FeCl3, low iron M9 media) | growth with free iron added back ([1]; 200 μM VK28 with 10 μM or 100 μM FeCl3, low iron M9 media) | bacterial growth (OD600 growth curves) [1] | FIC (EC 35218, EC 43888; [4]) | FIC (EC 35218, EC 43888; [5]) | FIC (EC 35218, EC 43888; [6]) | FIC (EC 35218, EC 43888; [7]) | FIC (EC 35218, EC 43888; [8]) | FIC (EC 35218, EC 43888; [9]) | FIC (EC 35218, EC 43888; [10]) | FIC (EC 35218, EC 43888; [11])
OCCN1CCN(Cc2ccc(O)c3ncccc23)CC1 [VK28, 5-(4-(2-hydroxyethyl)piperazin-1-ylmethyl)-8-hydroxyquinoline] | inhibition of growth of Acinetobacter baumannii is not reduced in the presence of magnesium | inhibition of growth of a number of strains of bacteria is not reduced in the presence of magnesium and calcium | inhibition of growth of E. coli is not reduced in the presence of magnesium and calcium | inhibition of growth of a number of strains of bacteria is not reduced in the presence of magnesium and calcium | slight inhibitory effect on the CFU/ml over the 24 hours | slight inhibitory effect on the CFU/ml over the 24 hours | slight inhibitory effect on the CFU/ml over the 24 hours | bacteriostatic (considered bacteriostatic if the inoculum's size was reduced by 0 to <3 log 10 CFU/ml) | inhibition of growth can be rescued by the addition of FeCl3 | bacteria are rescued from the VK28 growth inhibition | reduced bacterial growth to a significant extent | – | – | – | – | – | – | – | –
CNC(=O)c1c(O)c(=O)cc(C)n1C1CC1 [Apo6619, 1-cyclopropyl-3-hydroxy-6-methyl-4-oxo-1,4-dihydro-pyridine-2-carboxylic acid methylamide] | – | – | – | – | – | – | – | – | – | – | – | 1.25 | 1.25 | 1.25 | 1.75 | 1.25 | 1.25 | 1.25 | 0.75
Cc1c(O)c(=O)ccn1C [ApoL1, 3-hydroxy-1,2-dimethyl-4(1H)-pyridone] | – | – | – | – | slight reduction in CFU/ml levels over the 24 hour period | slight reduction in CFU/ml levels over the 24 hour period | sustained level of CFU/ml obtained over the 24 hour period | – | – | – | somewhat reduced bacterial growth | 1.25 | 1.25 | 1.25 | 0.75 | 1.25 | 1.25 | 1.25 | 0.75
